From ChEMBL document CHEMBL5376023, “The allure of targets for novel drugs” (RSC Med Chem, 2024)
In brackets after ≈: the same amount, converted by molar mass.

Assays:
[1] = tested on: Mycobacterium tuberculosis; assay: Antimycobacterial activity against Mycobacterium tuberculosis HN878 assessed as inhibition of mycobacterial growth incubated for 5 days; format: functional; settings: HN878, 120 h, time 5 day
Rhizopus arrhizus = assay: Antifungal activity against Rhizopus arrhizus assessed as fungal growth inhibition; format: functional, organism-based
Fusarium oxysporum = assay: Antifungal activity against Fusarium oxysporum assessed as inhibition of fungal growth; format: functional, organism-based
Aspergillus flavus = assay: Antifungal activity against Aspergillus flavus assessed as inhibition of fungal growth; format: functional, organism-based
Candida albicans = assay: Antifungal activity against Candida albicans assessed as inhibition of fungal growth; format: functional, organism-based
Cryptococcus neoformans = assay: […] activity against Cryptococcus neoformans assessed as inhibition of […]; format: functional, organism-based
Nakaseomyces glabratus [2] = assay: Antifungal activity against Candida glabrata MTCC 3019 assessed as inhibition of fungal growth incubated for 24 hrs by agar well diffusion method; format: functional, organism-based; settings: MTCC 3019, 24 h
Aspergillus fumigatus = assay: Antifungal activity against Aspergillus fumigatus ATCC 13073 strain assessed as […] growth inhibition; format: functional, organism-based
[Candida] auris = Antifungal activity against Candida auris assessed as inhibition of fungal growth; format: functional, organism-based; settings: Candidozyma auris
Nakaseomyces glabratus [3] = assay: Antifungal activity against Candida glabrata ATCC 90030 assessed as inhibition of microbial growth incubated for 24 hrs by broth microdilution method; format: functional, organism-based; settings: ATCC 90030, 24 h

Compound	MIC99 [1]	IC50 (Rhizopus arrhizus)	IC50 (Fusarium oxysporum)	IC50 (Aspergillus flavus)	IC50 (Candida albicans)	IC50 (Cryptococcus neoformans)	IC50 (Nakaseomyces glabratus [2])	IC50 (Aspergillus fumigatus)	IC50 ([Candida] auris)	IC50 (Nakaseomyces glabratus [3])
Cn1cc(NC(=O)c2cc(NC(=O)c3ccc(/C=C/c4ccc(C(F)(F)F)cc4)cc3)cn2C)cc1C(=O)NCCC(=N)N	1.56 µM (≈ 0.945 µg/mL)	–	–	–	–	–	–	–	–	–
CN(C)c1ccc(/C=C/c2ccc(C(=O)Nc3cc(C(=O)Nc4cc(C(=O)NCCC(=N)N)n(C)c4)n(C)c3)cn2)cc1	–	0.8 µg/mL (≈ 1.38 µM)	0.8 µg/mL (≈ 1.38 µM)	0.8 µg/mL (≈ 1.38 µM)	0.8 µg/mL (≈ 1.38 µM)	0.8 µg/mL (≈ 1.38 µM)	0.8 µg/mL (≈ 1.38 µM)	0.8 µg/mL (≈ 1.38 µM)	0.8 µg/mL (≈ 1.38 µM)	0.8 µg/mL
